Measurements from US20220380476A1, “Use of an anti-CCR7 antibody in combination therapies with a BTK inhibitor and/or BCL2- inhibitor for treating hematological malignancies” (Catapult Therapeutics B.V., priority 2019, published 2022).
“Also recorded” adds a separate entry of the source. Blank lines part the entries; values can stand above or below the molecule they belong to.

Legend:
CCR7 = assay: Flow cytometry of surface CCR7 expression in CLL cells from treated patients; type: in vivo, human; settings: for change in surface CCR7 expression compared with naïve patients: CLL patients on treatment
Method: Systems). […] Data acquisition was performed on a BD FACSCanto™ 11 Flow Cytometer (BD Biosciences).

CD20 (human) = CD20 (human) (UniProt P11836)
Sequence of CD20 (human) (P11836 whole entry): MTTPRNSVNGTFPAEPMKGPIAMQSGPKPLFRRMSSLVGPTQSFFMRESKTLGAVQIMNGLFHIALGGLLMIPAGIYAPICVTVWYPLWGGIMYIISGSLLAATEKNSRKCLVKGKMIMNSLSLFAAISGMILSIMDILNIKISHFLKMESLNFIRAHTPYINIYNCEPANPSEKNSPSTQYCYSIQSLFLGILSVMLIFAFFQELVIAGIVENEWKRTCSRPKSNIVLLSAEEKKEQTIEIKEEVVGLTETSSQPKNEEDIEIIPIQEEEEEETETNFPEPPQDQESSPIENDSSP

Bcl-2 = Bcl-2 (Homo sapiens, UniProt P10415); settings: cited from earlier work
Sequence of Bcl-2 (P10415 whole entry): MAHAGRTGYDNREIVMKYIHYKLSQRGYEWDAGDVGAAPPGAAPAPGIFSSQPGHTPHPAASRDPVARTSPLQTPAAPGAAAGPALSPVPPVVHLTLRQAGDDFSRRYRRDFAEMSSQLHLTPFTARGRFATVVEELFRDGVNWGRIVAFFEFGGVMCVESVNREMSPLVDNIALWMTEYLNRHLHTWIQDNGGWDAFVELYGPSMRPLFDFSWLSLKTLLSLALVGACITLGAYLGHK

MCL-1 = MCL-1 (Homo sapiens, UniProt Q07820); settings: cited from earlier work
Sequence of MCL-1 (Q07820 whole entry, species assumed): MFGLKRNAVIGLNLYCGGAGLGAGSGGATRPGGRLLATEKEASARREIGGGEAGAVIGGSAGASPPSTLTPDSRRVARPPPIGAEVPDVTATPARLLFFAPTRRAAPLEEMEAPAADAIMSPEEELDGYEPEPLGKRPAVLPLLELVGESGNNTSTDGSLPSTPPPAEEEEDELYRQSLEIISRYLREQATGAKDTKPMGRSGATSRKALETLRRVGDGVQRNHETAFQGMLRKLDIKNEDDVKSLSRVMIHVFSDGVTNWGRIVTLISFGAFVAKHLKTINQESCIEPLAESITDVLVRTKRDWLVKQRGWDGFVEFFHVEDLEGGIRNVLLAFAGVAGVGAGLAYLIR

[1] = tested on: primary cells from patients with B-cell malignancies; settings: in vitro; cited from earlier work
[2] = tested on: lymphoma and other blood cancers; settings: cited from earlier work
Bcl-2 mRNA = settings: cited from earlier work
BCL-XL and BCL-W = settings: cited from earlier work
[3] = tested on: patients with chronic lymphocytic leukemia (CLL); settings: cited from earlier work
[4] = target: T1, human CC motif receptor 7 (CCR7) (human, UniProt P32248 25-378); assay: cell-based or functional assay
T1 sequence (looked up): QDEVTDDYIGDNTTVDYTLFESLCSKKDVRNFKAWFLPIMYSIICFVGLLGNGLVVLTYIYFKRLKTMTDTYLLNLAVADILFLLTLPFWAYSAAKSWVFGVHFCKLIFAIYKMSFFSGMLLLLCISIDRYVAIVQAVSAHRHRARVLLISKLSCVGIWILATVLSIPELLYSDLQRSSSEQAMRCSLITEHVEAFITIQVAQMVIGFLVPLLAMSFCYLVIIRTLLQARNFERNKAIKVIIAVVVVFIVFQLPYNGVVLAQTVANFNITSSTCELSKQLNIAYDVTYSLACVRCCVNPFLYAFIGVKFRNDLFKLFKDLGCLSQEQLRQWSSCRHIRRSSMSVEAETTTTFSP

[5] = target: T1, human CC motif receptor 7 (CCR7); assay: cell-based or functional assay; remark: listed apart in the source
[6] = target: T1, human CC motif receptor 7 (CCR7); assay: cell-based or functional assay; remark: listed apart in the source
[7] = target: T1, human CC motif receptor 7 (CCR7); assay: cell-based or functional assay; remark: listed apart in the source
[8] = target: T1, human CC motif receptor 7 (CCR7); assay: cell-based or functional assay; remark: listed apart in the source
[9] = target: T1, human CC motif receptor 7 (CCR7); assay: cell-based or functional assay; remark: listed apart in the source

Molecule: C=CC(=O)N1CCC([C@@H]2CCNc3c(C(N)=O)c(-c4ccc(Oc5ccccc5)cc4)nn32)CC1 [zanabrutinib]
- change in surface CCR7 expression compared with naïve patients (CCR7): unchanged; also recorded: no changes

- EC50 (read off the curve); ADCC on CLL cells of a patient receiving venetoclax (CD20 (human)): 2 µg/mL
Molecule: RTX (antibody)

Molecule: CC1(C)CCC(c2ccc(Cl)cc2)=C(CN2CCN(c3ccc(C(=O)NS(=O)(=O)c4ccc(N[C@H](CCN5CCOCC5)CSc5ccccc5)c(S(=O)(=O)C(F)(F)F)c4)cc3)CC2)C1 [navitoclax, 4-(4-{[2-(4-Chlorophenyl)-5,5-dimethyl-1-cyclohexen-1-yl]methyl}-1-piperazinyl)-N-[(4-{[(2R)-4-(4-morpholinyl)-1-(phenylsulfanyl)-2-butanyl]amino}-3-[(trifluoromethyl)sulfonyl]phenyl)sulfonyl]-benzamide]
- affinity for Bcl-2, Bcl-xL and Bcl-w compared with previous Bcl-2 inhibitors (Bcl-2): higher affinity
- activity against MCL-1 (MCL-1): not A1 or Mcl-1

Molecule: CN(C)CC[C@H](CSc1ccccc1)Nc1ccc(S(=O)(=O)NC(=O)c2ccc(N3CCN(Cc4ccccc4-c4ccc(Cl)cc4)CC3)cc2)cc1[N+](=O)[O-] [ABT-737, 4-[4-[(4′-chloro[1,T-biphenyl]-2-yl)methyl]-1-piperazinyl]A/-[[4-[[(1R)-3-(dimethylamino)-1-[(phenylthio)methyl]propyl]amino]-3-nitrophenyl]sulfonyl]benzamide]
- affinity for Bcl-2, Bcl-xL and Bcl-w compared with previous Bcl-2 inhibitors (Bcl-2): higher affinity
- activity against MCL-1 (MCL-1): not A1 or Mcl-1
- sensitivity of primary cells [1]: sensitive
- survival ([2]; animal models): improves survival
- tumor regression ([2]; animal models): causes tumor regression
- efficacy in patient xenografts ([2]; preclinical studies utilizing patient xenografts): shows efficacy

Molecule: oblimersen
- cell proliferation (Bcl-2 mRNA): inhibited

Molecule: CC#CC(=O)N1CCC[C@H]1c1nc(-c2ccc(C(=O)Nc3ccccn3)cc2)c2c(N)nccn12 [acalabrutinib]
- change in surface CCR7 expression compared with naïve patients (CCR7): unchanged; also recorded: no changes

Molecule: CC1(C)CCC(CN2CCN(c3ccc(C(=O)NS(=O)(=O)c4ccc(NCC5CCOCC5)c([N+](=O)[O-])c4)c(Oc4cnc5[nH]ccc5c4)c3)CC2)=C(c2ccc(Cl)cc2)C1 [venetoclax]
- percentage of CCR7-expressing CLL cells (CCR7; CLL cells from patients on treatment): approximately 100%
- change in surface CCR7 expression compared with naïve patients (CCR7): maintained in essentially all CLL cells
- binding affinity to BCL-XL and BCL-W (BCL-XL and BCL-W): significantly lower affinity
- inhibition of Bcl-xL or Bcl-w (BCL-XL and BCL-W): not Bcl-xL or Bcl-w
- activity against MCL-1 (MCL-1): no activity
- clinical response [3]: Good responses
- thrombocytopenia [3]: not observed

- IC50 (read off the curve); CCL21-induced migration of CLL cells of a patient receiving venetoclax [4]: ~0.1 µg/mL
- IC50 (read off the curve); CCL19-induced migration of CLL cells of an ibrutinib patient [5]: ~0.2 µg/mL
- EC50 (read off the curve); ADCC on CLL cells of a patient receiving ibrutinib [6]: ~1 µg/mL
- EC50 (read off the curve); ADCC on CLL cells of a patient receiving zanabrutinib [7]: ~0.8 µg/mL
- EC50 (read off the curve); ADCC on CLL cells of a patient receiving venetoclax [8]: ~0.2 µg/mL
- EC50 (read off the curve); ADCC on CLL cells of a patient with disease relapsed/refractory to ibrutinib [9]: ~1 µg/mL
B1: CAP-100 (antibody, human IgG1, V domains shown)
VH: EVQLLESGGGFVKPGGSLKLSCVVSGLTFRDFAMSWVRQTPEKRLVWVATISSGGFYTYYPDSVKGRFTISRDNVRNILYLQMSSLRSEDTAVYYCVRRAYRYDGTGDYSALDYWGTGTTVTVSS
VL: DIQMTQSPSSLSASVGDRVTITCRASQDIGPSLNWYQQKPGKAPKRLIYATSNLDSGVPSRFSGSGSGTDFTLTISSLQPEDFATYYCLQFASSPLTFGQGTKVEIK
